Source: paper PMC5142810, “Structure of protein O-mannose kinase reveals a unique active site architecture” (eLife, 2016)

Columns and labels:
HsPOMK = target: T1, HsPOMK (Homo sapiens, UniProt Q9H5K3); test: radiometric kinase assay, […] incorporation, C18 cartridge; format: biochemical; conditions: 20 μM GGM-MU, 100 μM ATP, 10 mM MnCl2, 50 mM HEPES pH 7.5, 20 °C, 30 min
T1 construct: gene POMK; lumenal kinase domain, residues 49-350, 6xHis-MBP fusion kept, secreted from Hi5 insect cells (baculovirus)
T1 sequence (Q9H5K3 49-350): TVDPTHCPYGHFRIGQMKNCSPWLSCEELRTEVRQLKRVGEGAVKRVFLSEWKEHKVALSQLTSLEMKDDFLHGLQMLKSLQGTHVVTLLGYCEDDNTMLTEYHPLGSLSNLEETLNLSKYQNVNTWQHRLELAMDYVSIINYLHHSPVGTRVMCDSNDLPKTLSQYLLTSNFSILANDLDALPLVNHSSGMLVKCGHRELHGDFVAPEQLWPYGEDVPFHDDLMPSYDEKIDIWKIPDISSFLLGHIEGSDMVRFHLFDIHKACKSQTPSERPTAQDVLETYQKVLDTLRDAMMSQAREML

CoPOMK = target: T2, CoPOMK (Capsaspora owczarzaki, UniProt A0A0D2WXW5); test: as above; format: biochemical; conditions: 20 μM GGM-MU, 100 μM ATP, 10 mM MnCl2, 50 mM HEPES pH 7.5, 20 °C, 30 min
T2 construct: gene CAOG_008172; residues 112-610, 6xHis-MBP fusion (psMBP2), secreted from Hi5 insect cells (baculovirus)
T2 sequence (A0A0D2WXW5 112-610): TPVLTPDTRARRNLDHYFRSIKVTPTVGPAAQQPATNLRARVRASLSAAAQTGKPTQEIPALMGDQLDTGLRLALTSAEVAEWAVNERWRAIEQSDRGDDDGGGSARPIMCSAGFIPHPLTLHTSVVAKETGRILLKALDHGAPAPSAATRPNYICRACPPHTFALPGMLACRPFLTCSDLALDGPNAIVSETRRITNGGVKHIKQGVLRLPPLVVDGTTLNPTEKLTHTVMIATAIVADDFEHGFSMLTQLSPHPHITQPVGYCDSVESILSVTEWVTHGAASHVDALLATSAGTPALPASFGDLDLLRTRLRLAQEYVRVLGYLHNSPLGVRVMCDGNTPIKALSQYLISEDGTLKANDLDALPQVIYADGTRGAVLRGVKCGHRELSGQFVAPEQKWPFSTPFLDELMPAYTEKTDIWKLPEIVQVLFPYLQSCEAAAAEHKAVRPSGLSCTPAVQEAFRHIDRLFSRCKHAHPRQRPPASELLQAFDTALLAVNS

DrPOMK = target: T3, DrPOMK (Danio rerio, UniProt Q5U3W1); test: 1H NMR titration, Man H1 peak intensity; format: binding; conditions: read-out: dissociation constant
T3 construct: gene pomk; lumenal kinase domain, residues 49-347, secreted from Hi5 insect cells (baculovirus); N-terminal 6xHis-MBP removed by TEV for crystallization
T3 sequence (Q5U3W1 49-347): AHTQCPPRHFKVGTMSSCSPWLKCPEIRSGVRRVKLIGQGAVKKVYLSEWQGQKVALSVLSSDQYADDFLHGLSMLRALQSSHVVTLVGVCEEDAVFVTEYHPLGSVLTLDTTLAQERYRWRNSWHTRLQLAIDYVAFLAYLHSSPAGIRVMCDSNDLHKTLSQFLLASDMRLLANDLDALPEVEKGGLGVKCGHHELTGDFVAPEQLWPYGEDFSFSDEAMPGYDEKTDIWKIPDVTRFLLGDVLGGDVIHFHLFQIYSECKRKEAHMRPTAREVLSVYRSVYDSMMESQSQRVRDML

radiometric kinase assay, 32P incorporation, C18 cartridge (HsPOMK): POMK homologues phosphorylates GGM-MU.
radiometric kinase assay, 32P incorporation, C18 cartridge (CoPOMK): POMK homologues phosphorylates GGM-MU.
Kd (DrPOMK): 30.2 µM
Compound: CC(=O)N[C@H]1[C@H](O[C@H]2[C@H](O)[C@@H](CO)O[C@@H](O[C@H]3[C@H](O)[C@H](O)[C@@H](Oc4ccc5c(C)cc(=O)oc5c4)O[C@@H]3CO)[C@@H]2NC(C)=O)O[C@H](CO)[C@H](O)[C@@H]1O [GGM-MU]
